What was measured:
ALDH1L1 (rat) = biological target: T1, ALDH1L1 (rat) (Rattus norvegicus, UniProt P28037); assay: ALDH1L1 dehydrogenase activity, NADPH formation at 340 nm; format: biochemical; conditions: read-out: IC50 ALDH1L1 (rat); 4 mM propionaldehyde, 500 μM NADP+
T1 sequence (P28037 1-902): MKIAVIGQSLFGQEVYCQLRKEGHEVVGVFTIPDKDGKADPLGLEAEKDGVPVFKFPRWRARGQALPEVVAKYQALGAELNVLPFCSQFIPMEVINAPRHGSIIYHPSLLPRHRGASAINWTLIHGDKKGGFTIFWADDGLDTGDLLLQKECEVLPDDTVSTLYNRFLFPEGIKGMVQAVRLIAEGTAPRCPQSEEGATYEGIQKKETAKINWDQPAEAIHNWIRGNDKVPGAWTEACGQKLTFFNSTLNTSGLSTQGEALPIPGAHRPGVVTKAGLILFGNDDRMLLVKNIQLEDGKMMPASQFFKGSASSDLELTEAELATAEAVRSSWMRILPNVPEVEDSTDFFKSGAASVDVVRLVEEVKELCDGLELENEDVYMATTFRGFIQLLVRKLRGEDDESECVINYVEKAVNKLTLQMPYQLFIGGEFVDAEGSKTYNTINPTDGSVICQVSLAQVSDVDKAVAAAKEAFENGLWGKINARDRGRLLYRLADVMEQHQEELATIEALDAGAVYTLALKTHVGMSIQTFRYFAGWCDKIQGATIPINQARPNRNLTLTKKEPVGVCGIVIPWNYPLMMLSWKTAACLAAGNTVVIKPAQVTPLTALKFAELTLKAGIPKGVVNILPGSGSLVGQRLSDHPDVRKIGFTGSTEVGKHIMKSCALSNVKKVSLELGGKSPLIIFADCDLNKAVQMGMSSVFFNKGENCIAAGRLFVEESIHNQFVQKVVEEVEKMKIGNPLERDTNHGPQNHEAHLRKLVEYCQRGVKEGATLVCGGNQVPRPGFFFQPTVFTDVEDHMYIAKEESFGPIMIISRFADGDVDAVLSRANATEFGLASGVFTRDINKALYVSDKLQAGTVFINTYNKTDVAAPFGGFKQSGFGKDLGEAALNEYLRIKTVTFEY

ALDH3A1 = biological target: T2, ALDH3A1 (Homo sapiens, UniProt P30838); assay: ALDH3A1 dehydrogenase activity; format: biochemical; conditions: read-out: IC50 ALDH3A1; 300 μM benzaldehyde, 300 μM NADP+, pH 7.5
T2 sequence (P30838 1-453): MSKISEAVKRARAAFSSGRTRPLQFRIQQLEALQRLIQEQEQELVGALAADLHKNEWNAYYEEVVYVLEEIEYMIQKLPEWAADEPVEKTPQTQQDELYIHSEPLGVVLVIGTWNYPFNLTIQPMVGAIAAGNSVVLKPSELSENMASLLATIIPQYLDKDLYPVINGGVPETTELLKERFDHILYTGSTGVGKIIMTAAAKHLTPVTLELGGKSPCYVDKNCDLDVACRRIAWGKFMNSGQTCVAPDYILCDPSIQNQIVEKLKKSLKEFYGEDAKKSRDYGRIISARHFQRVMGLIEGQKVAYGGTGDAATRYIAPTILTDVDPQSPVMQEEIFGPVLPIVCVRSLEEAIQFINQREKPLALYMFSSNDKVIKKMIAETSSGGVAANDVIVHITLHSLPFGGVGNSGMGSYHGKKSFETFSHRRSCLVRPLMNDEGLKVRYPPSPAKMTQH

ALDH2 [1] = biological target: T3, ALDH2 (Homo sapiens, UniProt P05091); conditions: 1 mM propionaldehyde
T3 sequence (P05091 18-517): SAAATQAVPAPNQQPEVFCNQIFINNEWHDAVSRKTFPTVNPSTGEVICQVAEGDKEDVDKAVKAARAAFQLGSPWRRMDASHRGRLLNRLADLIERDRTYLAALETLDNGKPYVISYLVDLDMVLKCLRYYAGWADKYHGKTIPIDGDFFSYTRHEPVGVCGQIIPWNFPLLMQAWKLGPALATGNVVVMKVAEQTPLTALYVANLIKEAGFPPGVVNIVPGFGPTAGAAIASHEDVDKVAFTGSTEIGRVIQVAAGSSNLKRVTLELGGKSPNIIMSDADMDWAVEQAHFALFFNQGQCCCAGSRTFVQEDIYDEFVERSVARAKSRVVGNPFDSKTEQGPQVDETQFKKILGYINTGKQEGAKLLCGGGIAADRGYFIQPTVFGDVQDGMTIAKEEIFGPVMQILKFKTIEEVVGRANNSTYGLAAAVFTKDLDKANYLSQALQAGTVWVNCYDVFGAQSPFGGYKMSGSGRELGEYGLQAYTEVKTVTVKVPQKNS

ALDH1A1 [2] = biological target: T4, ALDH1A1 (Homo sapiens, UniProt P00352); assay: ALDH1A1 dehydrogenase activity, NADH formation at 340 nm; format: biochemical; conditions: for IC50: read-out: IC50 ALDH1A1, 100 μM propionaldehyde, 200 μM NAD+, 1% DMSO, pH 7.5, 25 °C; for inhibition at 10 µM: read-out: Inhibition of ALDH1A1 at 10 μM
T4 sequence (P00352 1-501): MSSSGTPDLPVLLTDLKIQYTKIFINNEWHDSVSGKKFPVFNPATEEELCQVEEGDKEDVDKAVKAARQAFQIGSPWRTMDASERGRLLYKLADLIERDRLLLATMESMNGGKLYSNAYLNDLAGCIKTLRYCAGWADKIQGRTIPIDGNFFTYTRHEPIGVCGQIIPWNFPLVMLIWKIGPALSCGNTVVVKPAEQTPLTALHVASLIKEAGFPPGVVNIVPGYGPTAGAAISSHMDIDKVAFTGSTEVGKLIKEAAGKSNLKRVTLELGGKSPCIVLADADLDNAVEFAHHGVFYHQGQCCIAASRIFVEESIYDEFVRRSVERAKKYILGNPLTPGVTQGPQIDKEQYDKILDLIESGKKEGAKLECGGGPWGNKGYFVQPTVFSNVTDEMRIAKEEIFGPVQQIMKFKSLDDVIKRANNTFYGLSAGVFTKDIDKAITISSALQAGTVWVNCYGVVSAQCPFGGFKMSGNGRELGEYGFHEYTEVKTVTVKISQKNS

ALDH2 [3] = biological target: T3, ALDH2; conditions: prior work; cited from earlier work
ALDH1B1 = biological target: T5, ALDH1B1 (Homo sapiens, UniProt P30837); conditions: read-out: IC50 ALDH1B1; 200 μM propionaldehyde, 500 μM NAD+, 25 °C
T5 sequence (P30837 18-517): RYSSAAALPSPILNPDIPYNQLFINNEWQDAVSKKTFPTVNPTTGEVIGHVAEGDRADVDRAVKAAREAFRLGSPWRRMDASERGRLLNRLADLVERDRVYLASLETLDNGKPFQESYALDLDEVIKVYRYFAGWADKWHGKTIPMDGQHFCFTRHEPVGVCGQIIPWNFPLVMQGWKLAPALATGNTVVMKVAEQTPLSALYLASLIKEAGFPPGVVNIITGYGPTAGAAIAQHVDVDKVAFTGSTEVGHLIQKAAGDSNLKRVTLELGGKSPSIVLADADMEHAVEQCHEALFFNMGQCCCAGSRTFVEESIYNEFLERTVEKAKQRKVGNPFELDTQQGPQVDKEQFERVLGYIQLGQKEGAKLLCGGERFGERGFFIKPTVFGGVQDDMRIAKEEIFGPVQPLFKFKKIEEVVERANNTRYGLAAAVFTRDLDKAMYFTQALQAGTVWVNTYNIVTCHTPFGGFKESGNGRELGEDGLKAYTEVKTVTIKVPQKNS

ALDH1A2 = biological target: T6, ALDH1A2 (Homo sapiens, UniProt O94788); conditions: read-out: IC50 ALDH1A2; 100 μM propionaldehyde, 200 μM NAD+, 1% DMSO, pH 7.5, 25 °C
T6 sequence (O94788 1-518): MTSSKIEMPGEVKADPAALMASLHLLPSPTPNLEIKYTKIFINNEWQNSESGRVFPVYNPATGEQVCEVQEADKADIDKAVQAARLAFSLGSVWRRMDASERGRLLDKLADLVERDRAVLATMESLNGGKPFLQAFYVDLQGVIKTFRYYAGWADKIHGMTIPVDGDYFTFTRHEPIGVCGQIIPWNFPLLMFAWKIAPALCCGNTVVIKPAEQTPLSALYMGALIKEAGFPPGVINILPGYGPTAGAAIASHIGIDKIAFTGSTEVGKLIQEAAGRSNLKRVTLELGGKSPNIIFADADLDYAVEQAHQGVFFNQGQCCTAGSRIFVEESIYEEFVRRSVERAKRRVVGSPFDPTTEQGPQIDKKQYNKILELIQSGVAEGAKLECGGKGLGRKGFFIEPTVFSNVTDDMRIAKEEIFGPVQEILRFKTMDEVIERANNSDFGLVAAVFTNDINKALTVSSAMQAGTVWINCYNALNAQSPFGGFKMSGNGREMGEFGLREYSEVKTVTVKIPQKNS

ALDH1A3 = biological target: T7, ALDH1A3 (Homo sapiens, UniProt P47895); conditions: read-out: IC50 ALDH1A3; 100 μM propionaldehyde, 200 μM NAD+, 1% DMSO, pH 7.5, 25 °C
T7 sequence (P47895 1-512): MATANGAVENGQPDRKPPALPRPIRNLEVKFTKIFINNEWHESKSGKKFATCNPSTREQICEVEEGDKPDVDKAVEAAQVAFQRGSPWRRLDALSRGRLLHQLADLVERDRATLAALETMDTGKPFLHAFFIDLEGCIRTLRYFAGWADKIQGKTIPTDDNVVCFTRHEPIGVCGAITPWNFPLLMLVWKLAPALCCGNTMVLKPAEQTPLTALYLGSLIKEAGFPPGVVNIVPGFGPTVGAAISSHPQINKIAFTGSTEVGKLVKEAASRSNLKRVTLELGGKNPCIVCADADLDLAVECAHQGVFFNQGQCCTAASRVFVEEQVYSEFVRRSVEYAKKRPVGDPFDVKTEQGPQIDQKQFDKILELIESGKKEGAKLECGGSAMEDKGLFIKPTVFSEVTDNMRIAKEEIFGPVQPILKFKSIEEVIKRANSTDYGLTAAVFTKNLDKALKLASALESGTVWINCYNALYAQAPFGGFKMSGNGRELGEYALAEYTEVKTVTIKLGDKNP

ALDH2 [4] = biological target: T3, ALDH2; assay: ALDH2 dehydrogenase activity, NADH formation at 340 nm; format: biochemical; conditions: for Emax: read-out: Max inhibition ALDH2
ALDH1A1 [5] = biological target: T4, ALDH1A1; conditions: for Mode of inhibition of ALDH1A1 versus varied NAD+: 1 mM propionaldehyde

Row | SMILES | IC50 (ALDH1L1 (rat)) | IC50 (ALDH3A1) | Mode of inhibition of ALDH2 versus varied NAD+ (ALDH2 [1]) | IC50 (ALDH1A1 [2]) | also measured
1 | CCCc1c(C)c2cc3c(C)coc3cc2oc1=O [Compound 1] | > 100 µM | > 100 µM |  |  | 
2 | CCCc1c(C)c2cc3c(C)c(C)oc3cc2oc1=O [Compound 2] | > 100 µM | > 100 µM | competitive |  | 
3 | Cc1oc2cc3oc(=O)c(C)c(C)c3cc2c1C [Compound 3] | > 100 µM | > 100 µM | competitive | > 100 µM | Mode of inhibition of ALDH2 with respect to varied propionaldehyde (ALDH2 [3]): non-competitive (mixed-type)
4 | COC(=O)C(C)Oc1ccc2c(C)cc(=O)oc2c1 (centres unmarked) [Compound 4] | > 100 µM | > 100 µM | competitive | > 100 µM | IC50 (ALDH1B1): > 100 µM; IC50 (ALDH1A2): > 100 µM; IC50 (ALDH1A3): > 100 µM
5 | CCCc1cc(=O)oc2cc3oc(C)c(C)c3cc12 [Compound 7] |  | > 100 µM |  | > 100 µM | 
6 | Cc1oc2cc3oc(=O)c4ccccc4c3cc2c1C [Compound 9] |  | > 100 µM |  | > 100 µM | Emax (ALDH2 [4]): 50 to 60%
7 | Cc1oc2cc3oc(=O)c4c(c3cc2c1C)CCCC4 [Compound 10] |  | > 100 µM |  |  | IC50 (ALDH1A3): > 100 µM
8 | Cc1oc2cc3oc(=O)c4c(c3cc2c1C)CCC4 [Compound 11] |  | > 100 µM |  |  | 
9 | Cc1oc2cc3oc(=O)c(CCC(=O)N4CCCCC4)c(C)c3cc2c1C [Compound 15] |  | > 100 µM | competitive |  | inhibition at 10 µM (ALDH2 [4]; read-out: Inhibition of ALDH2 at 10 μM): > 90%; inhibition at 10 µM (ALDH1A1 [2]): > 90%; Mode of inhibition of ALDH1A1 versus varied NAD+ (ALDH1A1 [5]): uncompetitive
10 | Cc1c(C)c2c(cc(C)c3c(C)coc32)oc1=O [Compound 23] |  | > 100 µM |  | > 100 µM | Emax (ALDH2 [4]): 50 to 60%
11 | Cc1cc(=O)oc2cc(OCC#N)ccc12 [Compound 30] |  |  | noncompetitive (mixed-type) |  | Mode of inhibition of ALDH1A1 versus varied NAD+ (ALDH1A1 [5]): noncompetitive
12 | CCN(CC)c1ccc2c(C)cc(=O)oc2c1 [Compound 32] |  | > 100 µM |  |  | Fold selective for ALDH1A1 versus ALDH1A2 (ALDH1A1 [2]): 10 fold; inhibition at 10 µM (ALDH1A1 [2]): ~85%; IC50 (ALDH1B1): > 100 µM; IC50 (ALDH1A3): > 100 µM; Mode of inhibition of ALDH1A1 versus varied acetaldehyde (ALDH1A1 [5]; 1 mM NAD+, varied acetaldehyde): noncompetitive; Mode of inhibition of ALDH1A1 versus varied NAD+ (ALDH1A1 [5]): noncompetitive
13 | Cc1c(Cc2ccccc2)c(=O)oc2cc(OS(C)(=O)=O)ccc12 [Compound 34] |  | > 100 µM |  |  | 
14 | C/C(=N\O)c1cc2cc(Br)ccc2oc1=O [Compound 36] |  | > 100 µM | competitively | > 100 µM | IC50 (ALDH1B1): > 100 µM; IC50 (ALDH1A2): > 100 µM
15 | O=c1c(-c2ccc(O)cc2)coc2cc(O[C@@H]3O[C@H](CO)[C@@H](O)[C@H](O)[C@H]3O)ccc12 [Daidzin, daidzin, reference compound] | > 100 µM | > 100 µM |  |  | 

Reference: article PMC5765548 (Journal of medicinal chemistry, 2017)
